Measurements as given in patent US20230167450A1, “BIFUNCTIONAL MOLECULES AND METHODS OF USING THEREOF” (Flagship Pioneering, Inc., priority 2020, published 2023).

B1: ASO1: Non-targeting (scramble) control ASO, …, 2′-MOE phosphorothioate; tested conjugated at 5′ end with Ibrutinib-MPEA (nucleic acid)
chain: CCUUGAAAUCCAUGACGCAGGGAGAAUUGCGUCAUUUAAAGCCUAGUUAACGCAUUUACUAAACGCAGACGAAAAUGGAAAGAUUAAUUGGGAGUGGUAGGAUGAAACAAUUUGGAGAAGAUAGAAGUUUGAAGUGGAAAACUGGAAGACAGAAGUACGGGAAGGCGAA
modifications: Cy5-labeled IVT RNA

Test system: mRNA encoding Renilla Luciferase protein
Assay: Renilla luciferase activity (protein expression) in HEK293T cells co-transfected with pRL-TK target plasmid and BTK-fused effector plasmid
Format: cell-based, human
Conditions: ASO conjugated at the 5′ end with Ibrutinib-MPEA; effector fused to BTK
Description: The Ibrutinib-conjugated ASOs described in Example 4a (shown in Table 5 below) were co-transfected into human cells along with the plasmid expressing the target Renilla luciferase described in example 4b, as well as the plasmid expressing BTK-YTHDF1 effector protein described example 4c.
A 96-well cell culture plate with 70% confluent HEK293T cells was transfected with the 50 nanograms of the target luciferase plasmid and 100 nanograms of the plasmid expressing the BTK-YTHDF1 effector, using Lipofectamine 2000 (Thermo Fisher Scientific) according to the manufacturer's instruction. After 24 hours, targeting (test) and non-targeting (control) ASOi were transfected separately into the cells at the final concentration of 100 nM using Lipofectamine RNaiMax (Thermo Fisher Scientific) according to the manufacturer's instruction. For each condition, cells were allowed to recover and are subsequently analyzed 48 hours after the transfection of ASOis.
Pierce Renilla Luciferase Glow Assay Kit (Thermo Fisher Scientific) was used for measuring the luciferase activity corresponding to protein expression in each condition, according to manufacturer's instruction. The luminescence was measured and quantified by a GloMax plate reader and its integrated software (Promega Corp.), according to manufacturer's instruction (FIG. 4). […]

Row | Molecule | Effector(s) increasing translation
1 | ASO3: Rluc RNA-targeting ASO, TTCTGCAGCTTAAGTTCGA, 2′-MOE phosphorothioate; tested conjugated at 5′ end with Ibrutinib-MPEA (*/i2MOErT/*/i2MOErT/*/i2MOErC/*/i2MOErT/*/i2MOErG/*/i2MOErC/*/i2MOErA/*/i2MOErG/*/i2MOErC/*/i2MOErT/*/i2MOErT/*/i2MOErA/*/i2MOErA/*/i2MOErG/*/i2MOErT/*/i2MOErT/*/i2MOErC/*/i2MOErG/*/32MOErA/; as printed in the source, key not given here) | YTHDF1, EIF4E
2 | B1 | YTHDF1, EIF4E
